Structures can show the parent of a compound that is named as a salt.
Columns and labels:
[1] = In vitro dissociation of the water soluble taxane derivatives in blood plasma of rat; format: in vitro ADME, SD rats; settings: 37° C.
Experimental: The obtained water soluble taxane derivatives were formulated as 0.2 mg/ml aqueous solutions. […] After 2 min, 5 min and 10 min of incubation, 0.2 ml of solutions were respectively taken from each of the samples, and added to acetonitrile (0.4 ml) cooled to −20° C. for precipitation of protein.

[2] = In vitro dissociation of the water soluble taxane derivatives in blood plasma of rabbit; format: in vitro ADME, New Zealand white rabbits; settings: 37° C.
Experimental: The obtained water soluble taxane derivatives were formulated as 0.2 mg/ml aqueous solutions. […] After 5 min, 20 min and 60 min of incubation, 0.2 ml of solutions were respectively taken from each of the samples, and added to acetonitrile (0.4 ml) cooled to −20° C. for precipitation of protein.

| Molecule | dissociation percent ([1]; 2 min) | dissociation percent ([1]; 5 min) | dissociation percent ([1]; 10 min) | dissociation percent ([2]; 5 min) | dissociation percent ([2]; 20 min) | dissociation percent ([2]; 60 min) |
| --- | --- | --- | --- | --- | --- | --- |
| CO[C@H]1C(=O)[C@]2(C)[C@@H](OC)C[C@H]3OC[C@@]3(OC(C)=O)[C@H]2[C@H](OC(=O)c2ccccc2)[C@]2(O)C[C@H](OC(=O)[C@H](OC(=O)[C@@H](F)CCN(C)C)[C@@H](NC(=O)OC(C)(C)C)c3ccccc3)C(C)=C1C2(C)C.Cl [Compound 08, 2′-O-[4-(N,N-dimethyl)amino-2(S)-fluorobutyryl]cabazitaxel hydrochloride] | 47.6% | 87.6% | 100% | 89.9% | 93.2% | 100% |
| CO[C@H]1C(=O)[C@]2(C)[C@@H](OC)C[C@H]3OC[C@@]3(OC(C)=O)[C@H]2[C@H](OC(=O)c2ccccc2)[C@]2(O)C[C@H](OC(=O)[C@H](OC(=O)[C@H](F)CCN(C)C)[C@@H](NC(=O)OC(C)(C)C)c3ccccc3)C(C)=C1C2(C)C [Compound 07, 2′-O-[4-(N,N-dimethyl)amino-2(R)-fluorobutyryl]cabazitaxel hydrochloride] | 49.5% | 89.6% | 100% | 79.2% | 95.5% | 100% |
| COC1C(=O)C2(C)C(OC)CC3OCC3(OC(C)=O)C2C(OC(=O)c2ccccc2)C2(O)CC(OC(=O)C(OC(=O)C(F)CCN(C)C)C(NC(=O)OC(C)(C)C)c3ccccc3)C(C)=C1C2(C)C.Cl [Compound 09, 2′-O-[4-(N,N-dimethyl)amino-2(R,S)-fluorobutyryl]cabazitaxel hydrochloride] | 47.8% | 89.1% | 100% | 83.2% | 97.1% | 100% |
| CCN(CC)CC[C@](C)(C(=O)O[C@@H](C(=O)O[C@H]1C[C@@]2(O)[C@@H](OC(=O)c3ccccc3)[C@@H]3[C@]4(OC(C)=O)CO[C@@H]4C[C@H](OC)[C@@]3(C)C(=O)[C@H](OC)C(=C1C)C2(C)C)[C@@H](NC(=O)OC(C)(C)C)c1ccccc1)C(F)(F)F.CS(=O)(=O)O [Compound 11, 2′-O-[4-(N,N-diethyl)amino-2-methyl-2(R)-2-trifluoromethylbutyryl]cabazitaxel methanesulfonate] | 52.3% | 89.6% | 97.2% | 56.2% | 80.5% | 92.1% |
| COC1C(=O)C2(C)C(OC)CC3OCC3(OC(C)=O)C2C(OC(=O)c2ccccc2)C2(O)CC(OC(=O)C(OC(=O)C(CCN)C(F)F)C(NC(=O)OC(C)(C)C)c3ccccc3)C(C)=C1C2(C)C.O=S(=O)([O-])O.[Na+] [Compound 10, 2′-O-[4-amino-2(R)-difluoromethylbutyryl]cabazitaxel sodium bisulfate salt] | 45.2% | 86.5% | 96.8% | 38.1% | 63.2% | 80.3% |
| 2′-O-[5-(N-methyl-N-ethyl)amino-2(R)-2-difluoroethylvaleryl]docetaxel hydrochloride [Compound 12] | 43.6% | 75.6% | 89.6% | 35.2% | 61.3% | 73.2% |
